In patent US10500166B2, “Methods for the treatment of erectile dysfunction using fispemifene” (QUATRX PHARMACEUTICALS, priority 2007, dated 2019):

How the values were obtained:
free testosterone = assay: Example 3 study in hypogonadal men: serum free testosterone measured by equilibrium dialysis (ITT); assay type: in vivo, human
Protocol: FIG. 6 depicts a graph of the data of the study from Example 3 showing serum free testosterone levels (ng/dL) measured by equilibrium dialysis over time for each of the treatment groups. The bars from left to right for each of the BL (baseline), 2 week, 4 week, and 6 week timepoints (the 6 week timepoint occurred 2 weeks after the discontinuation of study drug at week 4) correspond to the placebo, 100 mg, 200 mg, and 300 mg/day doses, respectively;
(§1) A randomized, double-blind, placebo controlled, parallel-group study of once-daily doses of fispemifene (100, 200, and 300 mg/day) given for 4 weeks was conducted in a population of hypogonadal men. Subjects were required to meet all of the following inclusion criteria at screening and prior to randomization to be eligible for the study:
(§2) There were 77 subjects total. The number of subjects randomized to the 100 mg fispemifene, 200 mg fispemifene, 300 mg fispemifene, and placebo arms were 21, 21, 19, and 16, respectively.
(§3) Subjects were randomly assigned to one of four treatment groups in a 1:1:1:1 ratio: • Treatment A (100 mg): fispemifene 100 mg+placebo+placebo; • Treatment B (200 mg): fispemifene 100 mg+fispemifene 100 mg+placebo; • Treatment C (300 mg): fispemifene 100 mg+fispemifene 100 mg+fispemifene 100 mg; and • Treatment D (Placebo): placebo+placebo+placebo.
(§4) Subjects took one dose (three capsules) of study medication once a day at home for 4 weeks. Capsules were to be taken in the morning immediately after breakfast, with the exception of the morning of the Week 4 visit. Capsules were not to be taken on the morning of the Week 4 visit because trough plasma levels of fispemifene were determined by a blood sample taken at this visit. Each subject was randomly assigned to treatment with one of the 3 different dose regimens of fispemifene or placebo vehicle. Each subject received a 4 week supply of study drug.
(§5) Blood samples were taken from the subjects within 1 week prior to dosing with study drug to establish baseline values; after 2 and 4 weeks of randomization; and 2 weeks after the last dose of study drug. Serum was prepared from those samples and used to determine the mean % change from baseline in total testosterone, free testosterone, SHBG (sex hormone-binding globulin), DHT (dihydrotestosterone), E2 (estradiol), LH (luteinizing hormone), FSH (follicle stimulating hormone), and inhibin B.
1. Percent change from baseline in free testosterone and calculated free testosterone at Weeks 2, 4, and 6;

[1] = system: FSH (follicle stimulating hormone); assay: Example 3 study in hypogonadal men: serum FSH (ITT); assay type: in vivo, human; details: for FSH % Change from Baseline to Week 2, Max / FSH % Change from Baseline to Week 2, Mean ± SD / FSH % Change from Baseline to Week 2, Median / FSH % Change from Baseline to Week 2, Min / FSH % Change from Baseline to Week 4, Max / FSH % Change from Baseline to Week 4, Mean ± SD / FSH % Change from Baseline to Week 4, Median / FSH % Change from Baseline to Week 4, Min / FSH % Change from Baseline to Week 6, Max / FSH % Change from Baseline to Week 6, Mean ± SD / FSH % Change from Baseline to Week 6, Median / FSH % Change from Baseline to Week 6, Min: (Week minus Baseline) divided by Baseline, LOCF; for FSH % Change from Baseline to Week 2, Max / FSH % Change from Baseline to Week 2, Mean ± SD / FSH % Change from Baseline to Week 2, Median / FSH % Change from Baseline to Week 2, Min / FSH % Change from Baseline to Week 4, Max / FSH % Change from Baseline to Week 4, Mean ± SD / FSH % Change from Baseline to Week 4, Median / FSH % Change from Baseline to Week 4, Min / FSH % Change from Baseline to Week 6, Max / FSH % Change from Baseline to Week 6, Mean ± SD / FSH % Change from Baseline to Week 6, Median / FSH % Change from Baseline to Week 6, Min / FSH Actual Value at Baseline (Visit 2), Max / FSH Actual Value at Baseline (Visit 2), Mean ± SD / FSH Actual Value at Baseline (Visit 2), Median / FSH Actual Value at Baseline (Visit 2), Min: ITT
Protocol: as §1, §2, §3, §4, §5
3. Percent change from baseline in SHBG, DHT, E2, LH, FSH, inhibin B, and testosterone/E2 ratio at Weeks 2, 4, and 6.

[2] = 100 mg/day, Week 6 (2 weeks after discontinuation)
[3] = 200 mg/day, Week 6 (2 weeks after discontinuation)
[4] = 300 mg/day, Week 6 (2 weeks after discontinuation)

OCCOCCOc1ccc(/C(=C(/CCCl)c2ccccc2)c2ccccc2)cc1 [Fispemifene, (Z)-2-{2-[4-(4-Chloro-1,2-diphenylbut-1-enyl)phenoxy]ethoxy}ethanol]
Free Testosterone, Max (free testosterone; 100 mg/day, Baseline (Visit 2)): 12.20 ng/dL
Free Testosterone, Mean ± SD (free testosterone; 100 mg/day, Baseline (Visit 2)): 8.35 ± 2.536 ng/dL
Free Testosterone, Median (free testosterone; 100 mg/day, Baseline (Visit 2)): 8.40 ng/dL
Free Testosterone, Min (free testosterone; 100 mg/day, Baseline (Visit 2)): 3.20 ng/dL
Free Testosterone, Max (free testosterone; 100 mg/day, Week 2): 17.7 ng/dL
Free Testosterone, Mean ± SD (free testosterone; 100 mg/day, Week 2): 11.6 ± 3.93 ng/dL
Free Testosterone, Median (free testosterone; 100 mg/day, Week 2): 10.3 ng/dL
Free Testosterone, Min (free testosterone; 100 mg/day, Week 2): 5.7 ng/dL
Free Testosterone, Max (free testosterone; 100 mg/day, Week 4): 18.2 ng/dL
Free Testosterone, Mean ± SD (free testosterone; 100 mg/day, Week 4): 11.3 ± 3.40 ng/dL
Free Testosterone, Median (free testosterone; 100 mg/day, Week 4): 10.8 ng/dL
Free Testosterone, Min (free testosterone; 100 mg/day, Week 4): 6.4 ng/dL
Free Testosterone, Max (free testosterone; [2]): 13.30 ng/dL
Free Testosterone, Mean ± SD (free testosterone; [2]): 8.93 ± 0.023 ng/dL
Free Testosterone, Median (free testosterone; [2]): 9.80 ng/dL
Free Testosterone, Min (free testosterone; [2]): 4.90 ng/dL
Free Testosterone, % Change from Baseline, Mean ± SD (free testosterone; 100 mg/day, to Week 2): 0.4 ± 0.00387%
Free Testosterone, Max (free testosterone; 200 mg/day, Baseline (Visit 2)): 15.90 ng/dL
Free Testosterone, Mean ± SD (free testosterone; 200 mg/day, Baseline (Visit 2)): 8.48 ± 3.043 ng/dL
Free Testosterone, Median (free testosterone; 200 mg/day, Baseline (Visit 2)): 8.50 ng/dL
Free Testosterone, Min (free testosterone; 200 mg/day, Baseline (Visit 2)): 4.30 ng/dL
Free Testosterone, Max (free testosterone; 200 mg/day, Week 2): 16.4 ng/dL
Free Testosterone, Mean ± SD (free testosterone; 200 mg/day, Week 2): 10.6 ± 3.52 ng/dL
Free Testosterone, Median (free testosterone; 200 mg/day, Week 2): 10.0 ng/dL
Free Testosterone, Min (free testosterone; 200 mg/day, Week 2): 4.8 ng/dL
Free Testosterone, Max (free testosterone; 200 mg/day, Week 4): 19.4 ng/dL
Free Testosterone, Mean ± SD (free testosterone; 200 mg/day, Week 4): 11.8 ± 3.80 ng/dL
Free Testosterone, Median (free testosterone; 200 mg/day, Week 4): 12.2 ng/dL
Free Testosterone, Min (free testosterone; 200 mg/day, Week 4): 5.2 ng/dL
Free Testosterone, Max (free testosterone; [3]): 16.80 ng/dL
Free Testosterone, Mean ± SD (free testosterone; [3]): 9.10 ± 3.307 ng/dL
Free Testosterone, Median (free testosterone; [3]): 8.00 ng/dL
Free Testosterone, Min (free testosterone; [3]): 5.40 ng/dL
Free Testosterone, Max (free testosterone; 300 mg/day, Baseline (Visit 2)): 12.30 ng/dL
Free Testosterone, Mean ± SD (free testosterone; 300 mg/day, Baseline (Visit 2)): 8.19 ± 2.966 ng/dL
Free Testosterone, Median (free testosterone; 300 mg/day, Baseline (Visit 2)): 8.20 ng/dL
Free Testosterone, Max (free testosterone; 300 mg/day, Week 2): 22.0 ng/dL
Free Testosterone, Mean ± SD (free testosterone; 300 mg/day, Week 2): 12.1 ± 4.96 ng/dL
Free Testosterone, Median (free testosterone; 300 mg/day, Week 2): 12.9 ng/dL
Free Testosterone, Min (free testosterone; 300 mg/day, Week 2): 0.2 ng/dL
Free Testosterone, Max (free testosterone; 300 mg/day, Week 4): 21.2 ng/dL
Free Testosterone, Mean ± SD (free testosterone; 300 mg/day, Week 4): 12.5 ± 5.00 ng/dL
Free Testosterone, Median (free testosterone; 300 mg/day, Week 4): 14.0 ng/dL
Free Testosterone, Min (free testosterone; 300 mg/day, Week 4): 0.1 ng/dL
Free Testosterone, Max (free testosterone; [4]): 17.30 ng/dL
Free Testosterone, Mean ± SD (free testosterone; [4]): 9.30 ± 3.567 ng/dL
Free Testosterone, Median (free testosterone; [4]): 9.80 ng/dL
Free Testosterone, Min (free testosterone; [4]): 0.30 ng/dL
FSH % Change from Baseline to Week 2, Max ([1]; 100 mg): 0.76
FSH % Change from Baseline to Week 2, Mean ± SD ([1]; 100 mg): 0.29 ± 0.222
FSH % Change from Baseline to Week 2, Median ([1]; 100 mg): 0.27
FSH % Change from Baseline to Week 2, Min ([1]; 100 mg): −0.13
FSH % Change from Baseline to Week 4, Max ([1]; 100 mg): 1.12
FSH % Change from Baseline to Week 4, Mean ± SD ([1]; 100 mg): 0.28 ± 0.296
FSH % Change from Baseline to Week 4, Median ([1]; 100 mg): 0.24
FSH % Change from Baseline to Week 4, Min ([1]; 100 mg): −0.09
FSH % Change from Baseline to Week 6, Max ([1]; 100 mg): 0.610
FSH % Change from Baseline to Week 6, Mean ± SD ([1]; 100 mg): 0.043 ± 0.2302
FSH % Change from Baseline to Week 6, Median ([1]; 100 mg): 0.000
FSH % Change from Baseline to Week 6, Min ([1]; 100 mg): −0.345
FSH Actual Value at Baseline (Visit 2), Max ([1]; 100 mg): 14.90 IU/L
FSH Actual Value at Baseline (Visit 2), Mean ± SD ([1]; 100 mg): 649 ± 3.738 IU/L
FSH Actual Value at Baseline (Visit 2), Median ([1]; 100 mg): 5.00 IU/L
FSH % Change from Baseline to Week 2, Max ([1]; 200 mg): 0.60
FSH % Change from Baseline to Week 2, Mean ± SD ([1]; 200 mg): 0.33 ± 0.147
FSH % Change from Baseline to Week 2, Median ([1]; 200 mg): 0.28
FSH % Change from Baseline to Week 2, Min ([1]; 200 mg): 0.03
FSH % Change from Baseline to Week 4, Max ([1]; 200 mg): 0.58
FSH % Change from Baseline to Week 4, Mean ± SD ([1]; 200 mg): 0.32 ± 0.157
FSH % Change from Baseline to Week 4, Median ([1]; 200 mg): 0.33
FSH % Change from Baseline to Week 4, Min ([1]; 200 mg): 0.02
FSH % Change from Baseline to Week 6, Max ([1]; 200 mg): 0.442
FSH % Change from Baseline to Week 6, Mean ± SD ([1]; 200 mg): 0.050 ± 0.1657
FSH % Change from Baseline to Week 6, Median ([1]; 200 mg): 0.022
FSH % Change from Baseline to Week 6, Min ([1]; 200 mg): −0.167
FSH Actual Value at Baseline (Visit 2), Max ([1]; 200 mg): 14.20 IU/L
FSH Actual Value at Baseline (Visit 2), Mean ± SD ([1]; 200 mg): 5.91 ± 3.054 IU/L
FSH Actual Value at Baseline (Visit 2), Median ([1]; 200 mg): 5.20 IU/L
FSH Actual Value at Baseline (Visit 2), Min ([1]; 200 mg): 2.40 IU/L
FSH % Change from Baseline to Week 2, Max ([1]; 300 mg): 0.78
FSH % Change from Baseline to Week 2, Mean ± SD ([1]; 300 mg): 0.36 ± 0.233
FSH % Change from Baseline to Week 2, Median ([1]; 300 mg): 0.31
FSH % Change from Baseline to Week 2, Min ([1]; 300 mg): −0.21
FSH % Change from Baseline to Week 4, Max ([1]; 300 mg): 0.60
FSH % Change from Baseline to Week 4, Mean ± SD ([1]; 300 mg): 0.29 ± 0.206
FSH % Change from Baseline to Week 4, Median ([1]; 300 mg): 0.28
FSH % Change from Baseline to Week 4, Min ([1]; 300 mg): −0.24
FSH % Change from Baseline to Week 6, Max ([1]; 300 mg): 0.395
FSH % Change from Baseline to Week 6, Mean ± SD ([1]; 300 mg): −0.010 ± 0.1786
FSH % Change from Baseline to Week 6, Median ([1]; 300 mg): −0.043
FSH % Change from Baseline to Week 6, Min ([1]; 300 mg): −0.255
FSH Actual Value at Baseline (Visit 2), Max ([1]; 300 mg): 12.30 IU/L
FSH Actual Value at Baseline (Visit 2), Mean ± SD ([1]; 300 mg): 5.08 ± 2.931 IU/L
FSH Actual Value at Baseline (Visit 2), Median ([1]; 300 mg): 4.10 IU/L
FSH Actual Value at Baseline (Visit 2), Min ([1]; 300 mg): 1.80 IU/L
effect on serum FSH levels ([1]; hypogonadal men, 100-300 mg/day for 4 weeks): increased
